Paper PMC5666424, “Marine-Derived 2-Aminoimidazolone Alkaloids. Leucettamine B-Related Polyandrocarpamines Inhibit Mammalian and Protozoan DYRK & CLK Kinases” (Marine Drugs, 2017)

How the values were obtained:
Assay in all cases: KinomeScan
Assay type in all cases: binding
Conditions in all cases: 1 μM
[1] = target: T1, ABL1(F317I)-nonphosphorylated (Homo sapiens, UniProt P00519, F317I)
T1 construct: purchased DiscoverX (KINOMEscan)
Method: (§1) Assays were performed essentially as described previously. For most assays, kinase-tagged T7 phage strains were grown in parallel in 24-well blocks in an E. coli host derived from the BL21 strain. E. coli were grown to log-phase and infected with T7 phage from a frozen stock (multiplicity of infection ~0.1) and incubated with shaking at 32 °C until lysis (~90 min). The lysates were centrifuged (6000× g) and filtered (0.2 μm) to remove cell debris. The remaining kinases were produced in HEK-293 cells and subsequently tagged with DNA for qPCR detection. […] The liganded beads were blocked with excess biotin and washed with blocking buffer (SeaBlock (Pierce, ThermoFisher Scientific, Illkirch, France), 1% BSA, 0.05% Tween 20, 1 mM DTT) to remove unbound ligand and to reduce non-specific phage binding. […] An 11-point threefold serial dilution of each test compound was prepared in 100% DMSO at 100× final test concentration which and subsequently diluted to 1× in the assay. All reactions were performed in polystyrene 96-well plates in a final volume of 0.135 mL. […] The kinase concentration in the eluates was measured by qPCR.

[2] = target: T2, ABL1(F317L)-phosphorylated (Homo sapiens, UniProt P00519, F317L)
T2 construct: purchased DiscoverX (KINOMEscan)
Method: as §1

[3] = target: T3, ABL1(H396P)-phosphorylated (Homo sapiens, UniProt P00519, H396P)
T3 construct: purchased DiscoverX (KINOMEscan)
Method: as §1

ACVRL1 = target: T4, ACVRL1 (Homo sapiens, UniProt P37023)
T4 construct: purchased DiscoverX (KINOMEscan)
T4 sequence (P37023 22-503): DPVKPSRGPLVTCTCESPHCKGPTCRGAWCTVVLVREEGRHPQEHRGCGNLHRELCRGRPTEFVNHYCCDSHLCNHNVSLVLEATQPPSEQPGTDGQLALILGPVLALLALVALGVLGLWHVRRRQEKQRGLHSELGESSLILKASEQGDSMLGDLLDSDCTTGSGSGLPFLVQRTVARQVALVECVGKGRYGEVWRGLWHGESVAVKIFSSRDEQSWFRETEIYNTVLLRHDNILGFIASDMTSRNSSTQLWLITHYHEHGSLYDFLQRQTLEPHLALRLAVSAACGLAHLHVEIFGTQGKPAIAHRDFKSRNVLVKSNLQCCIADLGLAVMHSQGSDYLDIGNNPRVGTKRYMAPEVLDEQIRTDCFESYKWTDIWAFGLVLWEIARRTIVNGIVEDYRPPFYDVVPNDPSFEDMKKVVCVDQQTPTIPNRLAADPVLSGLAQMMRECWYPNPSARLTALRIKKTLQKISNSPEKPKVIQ
Method: as §1

AMPK-alpha2 = target: T5, AMPK-alpha2 (Homo sapiens, UniProt P54646)
T5 construct: purchased DiscoverX (KINOMEscan)
T5 sequence (P54646 whole entry): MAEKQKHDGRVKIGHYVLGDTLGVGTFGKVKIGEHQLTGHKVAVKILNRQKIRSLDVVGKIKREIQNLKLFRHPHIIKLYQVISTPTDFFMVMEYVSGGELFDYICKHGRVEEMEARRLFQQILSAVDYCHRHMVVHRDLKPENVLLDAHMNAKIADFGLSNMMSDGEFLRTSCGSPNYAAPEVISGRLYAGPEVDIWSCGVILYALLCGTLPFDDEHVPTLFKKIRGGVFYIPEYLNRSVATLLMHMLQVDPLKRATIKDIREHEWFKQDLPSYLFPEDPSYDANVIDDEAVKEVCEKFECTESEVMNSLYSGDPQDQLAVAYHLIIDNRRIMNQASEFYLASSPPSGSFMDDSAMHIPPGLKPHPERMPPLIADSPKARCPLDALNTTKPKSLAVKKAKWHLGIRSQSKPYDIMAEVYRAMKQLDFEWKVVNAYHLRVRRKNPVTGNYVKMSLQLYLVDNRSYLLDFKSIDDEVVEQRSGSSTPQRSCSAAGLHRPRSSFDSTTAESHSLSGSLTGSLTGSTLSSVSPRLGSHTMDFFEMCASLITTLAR
Method: as §1

ANKK1 = target: T6, ANKK1 (Homo sapiens, UniProt Q8NFD2)
T6 construct: purchased DiscoverX (KINOMEscan)
Method: as §1

BMPR2 = target: T7, BMPR2 (Homo sapiens, UniProt Q13873)
T7 construct: purchased DiscoverX (KINOMEscan)
Method: as §1

CDK7 = target: T8, CDK7 (Homo sapiens, UniProt P50613)
T8 construct: purchased DiscoverX (KINOMEscan)
Method: as §1

CDKL1 = target: T9, CDKL1 (Homo sapiens, UniProt Q00532)
T9 construct: purchased DiscoverX (KINOMEscan)
Method: as §1

CLK2 = target: T10, CLK2 (Homo sapiens, UniProt P49760)
T10 construct: purchased DiscoverX (KINOMEscan)
Method: as §1

CLK3 = target: T11, CLK3 (Homo sapiens, UniProt P49761)
T11 construct: purchased DiscoverX (KINOMEscan)
Method: as §1

DDR1 = target: T12, DDR1 (Homo sapiens, UniProt Q08345)
T12 construct: purchased DiscoverX (KINOMEscan)
Method: as §1

DYRK1A = DYRK1A (Homo sapiens, UniProt Q13627)
Method: as §1

EPHA5 = target: T13, EPHA5 (Homo sapiens, UniProt P54756)
T13 construct: purchased DiscoverX (KINOMEscan)
Method: as §1

EPHB4 = target: T14, EPHB4 (Homo sapiens, UniProt P54760)
T14 construct: purchased DiscoverX (KINOMEscan)
Method: as §1

EPHB6 = target: T15, EPHB6 (Homo sapiens, UniProt O15197)
T15 construct: purchased DiscoverX (KINOMEscan)
Method: as §1

FAK = target: T16, FAK (Homo sapiens, UniProt Q05397)
T16 construct: purchased DiscoverX (KINOMEscan)
Method: as §1

FLT3(D835H) = target: T17, FLT3(D835H) (Homo sapiens, UniProt P36888, D835H)
T17 construct: purchased DiscoverX (KINOMEscan)
Method: as §1

FLT3(D835Y) = target: T18, FLT3(D835Y) (Homo sapiens, UniProt P36888, D835Y)
T18 construct: purchased DiscoverX (KINOMEscan)
Method: as §1

GRK1 = target: T19, GRK1 (Homo sapiens, UniProt Q15835)
T19 construct: purchased DiscoverX (KINOMEscan)
Method: as §1

GSK3B = target: T20, GSK3B (Homo sapiens, UniProt P49841)
T20 construct: purchased DiscoverX (KINOMEscan)
Method: as §1

INSRR = target: T21, INSRR (Homo sapiens, UniProt P14616)
T21 construct: purchased DiscoverX (KINOMEscan)
Method: as §1

IRAK3 = target: T22, IRAK3 (Homo sapiens, UniProt Q9Y616)
T22 construct: purchased DiscoverX (KINOMEscan)
Method: as §1

[4] = target: T23, JAK3(JH1domain-catalytic) (Homo sapiens, UniProt P52333)
T23 construct: JAK3(JH1domain-catalytic); purchased DiscoverX (KINOMEscan)
T23 sequence (P52333 811-1124 limits assumed): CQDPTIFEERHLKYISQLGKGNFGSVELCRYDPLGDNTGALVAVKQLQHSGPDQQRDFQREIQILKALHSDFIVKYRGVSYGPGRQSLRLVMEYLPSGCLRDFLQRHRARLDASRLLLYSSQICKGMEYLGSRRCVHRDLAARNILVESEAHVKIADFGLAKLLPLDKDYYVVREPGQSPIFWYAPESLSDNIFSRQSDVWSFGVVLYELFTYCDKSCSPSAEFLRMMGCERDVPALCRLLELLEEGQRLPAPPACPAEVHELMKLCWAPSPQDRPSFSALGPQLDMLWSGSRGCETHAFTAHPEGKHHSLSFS
Method: as §1

KIT(L576P) = target: T24, KIT(L576P) (Homo sapiens, UniProt P10721, L576P)
T24 construct: purchased DiscoverX (KINOMEscan)
Method: as §1

KIT(V559D,T670I) = target: T25, KIT(V559D,T670I) (Homo sapiens, UniProt P10721, T670I/V559D)
T25 construct: purchased DiscoverX (KINOMEscan)
Method: as §1

MELK = target: T26, MELK (Homo sapiens, UniProt Q14680)
T26 construct: purchased DiscoverX (KINOMEscan)
Method: as §1

MET(M1250T) = target: T27, MET(M1250T) (Homo sapiens, UniProt P08581, M1250T)
T27 construct: purchased DiscoverX (KINOMEscan)
T27 sequence (P08581 25-1390 M1250T): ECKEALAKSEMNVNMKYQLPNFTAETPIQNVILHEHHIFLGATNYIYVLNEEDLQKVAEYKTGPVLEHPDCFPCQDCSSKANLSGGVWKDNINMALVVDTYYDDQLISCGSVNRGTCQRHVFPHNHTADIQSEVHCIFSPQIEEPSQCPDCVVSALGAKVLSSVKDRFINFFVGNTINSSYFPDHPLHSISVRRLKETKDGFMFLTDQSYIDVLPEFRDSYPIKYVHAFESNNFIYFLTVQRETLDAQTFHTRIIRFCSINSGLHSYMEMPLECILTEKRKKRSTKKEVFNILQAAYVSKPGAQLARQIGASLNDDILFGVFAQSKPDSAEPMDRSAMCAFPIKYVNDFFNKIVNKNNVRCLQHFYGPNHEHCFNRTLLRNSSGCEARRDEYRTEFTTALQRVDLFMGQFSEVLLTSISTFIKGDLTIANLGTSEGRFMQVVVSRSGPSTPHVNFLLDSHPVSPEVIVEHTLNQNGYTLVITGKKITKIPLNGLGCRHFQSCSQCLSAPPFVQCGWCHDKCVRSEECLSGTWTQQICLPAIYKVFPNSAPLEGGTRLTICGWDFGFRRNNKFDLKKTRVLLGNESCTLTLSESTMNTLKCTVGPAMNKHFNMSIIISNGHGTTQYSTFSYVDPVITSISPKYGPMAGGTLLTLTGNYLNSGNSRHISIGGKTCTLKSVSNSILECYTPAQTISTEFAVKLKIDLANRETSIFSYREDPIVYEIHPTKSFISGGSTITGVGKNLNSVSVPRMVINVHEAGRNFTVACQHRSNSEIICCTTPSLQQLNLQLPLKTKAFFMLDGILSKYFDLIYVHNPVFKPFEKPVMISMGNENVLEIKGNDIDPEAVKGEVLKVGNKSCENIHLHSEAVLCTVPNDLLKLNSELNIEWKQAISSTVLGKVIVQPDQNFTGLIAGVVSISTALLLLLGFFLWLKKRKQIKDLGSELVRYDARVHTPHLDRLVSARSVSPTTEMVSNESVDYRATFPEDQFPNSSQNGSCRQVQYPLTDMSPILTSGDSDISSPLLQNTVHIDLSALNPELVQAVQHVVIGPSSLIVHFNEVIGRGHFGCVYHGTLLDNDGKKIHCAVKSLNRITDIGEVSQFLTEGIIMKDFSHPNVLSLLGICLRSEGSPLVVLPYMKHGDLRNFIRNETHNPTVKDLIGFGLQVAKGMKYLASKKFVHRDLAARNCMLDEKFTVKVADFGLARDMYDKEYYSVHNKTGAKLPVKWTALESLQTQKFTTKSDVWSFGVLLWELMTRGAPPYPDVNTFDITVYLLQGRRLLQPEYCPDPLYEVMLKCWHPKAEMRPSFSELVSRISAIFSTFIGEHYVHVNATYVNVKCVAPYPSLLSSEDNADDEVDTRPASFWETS
Method: as §1

MKNK1 = target: T28, MKNK1 (Homo sapiens, UniProt Q9BUB5)
T28 construct: purchased DiscoverX (KINOMEscan)
Method: as §1

MST2 = target: T29, MST2 (Homo sapiens, UniProt Q13188)
T29 construct: purchased DiscoverX (KINOMEscan)
Method: as §1

NDR2 = target: T30, NDR2 (Homo sapiens, UniProt Q9Y2H1)
T30 construct: purchased DiscoverX (KINOMEscan)
Method: as §1

NEK4 = target: T31, NEK4 (Homo sapiens, UniProt P51957)
T31 construct: purchased DiscoverX (KINOMEscan)
T31 sequence (P51957 whole entry): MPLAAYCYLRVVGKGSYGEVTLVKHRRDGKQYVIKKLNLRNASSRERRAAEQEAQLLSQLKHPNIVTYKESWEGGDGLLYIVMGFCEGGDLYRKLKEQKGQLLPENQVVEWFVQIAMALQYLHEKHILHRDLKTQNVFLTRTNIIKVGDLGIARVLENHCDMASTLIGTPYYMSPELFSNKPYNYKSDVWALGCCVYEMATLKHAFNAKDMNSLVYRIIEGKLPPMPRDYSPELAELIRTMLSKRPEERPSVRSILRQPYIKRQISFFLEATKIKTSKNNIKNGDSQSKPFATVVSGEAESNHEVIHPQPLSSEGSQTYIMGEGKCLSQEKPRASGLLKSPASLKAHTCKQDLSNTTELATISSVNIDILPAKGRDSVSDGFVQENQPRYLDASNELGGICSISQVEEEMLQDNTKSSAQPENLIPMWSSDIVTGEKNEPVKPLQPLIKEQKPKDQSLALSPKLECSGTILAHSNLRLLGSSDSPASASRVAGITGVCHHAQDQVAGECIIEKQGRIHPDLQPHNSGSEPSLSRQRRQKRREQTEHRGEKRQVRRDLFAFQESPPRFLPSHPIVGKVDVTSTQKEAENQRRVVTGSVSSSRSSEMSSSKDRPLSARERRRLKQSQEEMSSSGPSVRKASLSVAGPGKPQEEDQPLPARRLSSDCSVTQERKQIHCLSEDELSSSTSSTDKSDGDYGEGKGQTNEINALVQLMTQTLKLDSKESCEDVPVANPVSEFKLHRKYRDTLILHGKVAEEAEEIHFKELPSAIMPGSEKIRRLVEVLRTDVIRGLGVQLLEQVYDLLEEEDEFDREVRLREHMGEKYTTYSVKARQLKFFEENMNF
Method: as §1

SIK2 = target: T32, SIK2 (Homo sapiens, UniProt Q9H0K1)
T32 construct: purchased DiscoverX (KINOMEscan)
T32 sequence (Q9H0K1 whole entry): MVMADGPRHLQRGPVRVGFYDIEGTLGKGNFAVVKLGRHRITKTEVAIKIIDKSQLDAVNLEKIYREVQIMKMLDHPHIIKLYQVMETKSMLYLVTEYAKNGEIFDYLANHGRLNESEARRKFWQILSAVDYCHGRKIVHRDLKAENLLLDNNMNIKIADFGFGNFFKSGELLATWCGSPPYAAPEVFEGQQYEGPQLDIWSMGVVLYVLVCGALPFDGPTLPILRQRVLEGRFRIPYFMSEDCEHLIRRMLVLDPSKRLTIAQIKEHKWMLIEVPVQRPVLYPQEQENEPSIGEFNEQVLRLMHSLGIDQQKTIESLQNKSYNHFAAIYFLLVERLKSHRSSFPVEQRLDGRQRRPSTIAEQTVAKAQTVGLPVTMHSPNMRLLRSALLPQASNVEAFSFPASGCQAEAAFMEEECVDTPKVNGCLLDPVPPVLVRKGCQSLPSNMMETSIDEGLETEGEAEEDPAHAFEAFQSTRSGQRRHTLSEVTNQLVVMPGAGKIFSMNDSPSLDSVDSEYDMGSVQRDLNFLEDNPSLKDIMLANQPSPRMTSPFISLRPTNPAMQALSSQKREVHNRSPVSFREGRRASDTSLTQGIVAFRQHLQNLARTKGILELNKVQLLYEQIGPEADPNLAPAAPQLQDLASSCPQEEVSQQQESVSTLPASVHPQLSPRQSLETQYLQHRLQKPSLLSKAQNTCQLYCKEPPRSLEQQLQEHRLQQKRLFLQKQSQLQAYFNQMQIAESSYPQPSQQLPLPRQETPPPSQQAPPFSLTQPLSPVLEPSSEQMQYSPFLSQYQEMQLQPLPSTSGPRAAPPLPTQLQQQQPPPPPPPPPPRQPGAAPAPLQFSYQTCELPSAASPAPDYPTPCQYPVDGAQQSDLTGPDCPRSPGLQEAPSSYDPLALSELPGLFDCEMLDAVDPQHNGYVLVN
Method: as §1

SRPK3 = target: T33, SRPK3 (Homo sapiens, UniProt Q9UPE1)
T33 construct: purchased DiscoverX (KINOMEscan)
T33 sequence (Q9UPE1 whole entry): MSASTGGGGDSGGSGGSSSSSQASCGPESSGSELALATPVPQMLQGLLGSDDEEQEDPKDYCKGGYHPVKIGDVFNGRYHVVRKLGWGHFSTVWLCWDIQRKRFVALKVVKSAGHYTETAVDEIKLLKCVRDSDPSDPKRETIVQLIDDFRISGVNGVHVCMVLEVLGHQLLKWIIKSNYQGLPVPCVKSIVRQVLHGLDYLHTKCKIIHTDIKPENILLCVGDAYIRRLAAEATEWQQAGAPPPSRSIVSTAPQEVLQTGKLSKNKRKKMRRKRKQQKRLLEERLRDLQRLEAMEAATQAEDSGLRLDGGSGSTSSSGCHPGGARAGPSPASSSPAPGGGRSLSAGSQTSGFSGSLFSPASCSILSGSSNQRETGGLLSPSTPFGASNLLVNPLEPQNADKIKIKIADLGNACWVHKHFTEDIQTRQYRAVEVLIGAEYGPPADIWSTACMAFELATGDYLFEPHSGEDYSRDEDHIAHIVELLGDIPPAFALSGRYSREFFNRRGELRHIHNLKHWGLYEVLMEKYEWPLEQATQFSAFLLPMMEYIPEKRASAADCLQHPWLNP
Method: as §1

TRKA = target: T34, TRKA (Homo sapiens, UniProt P04629)
T34 construct: purchased DiscoverX (KINOMEscan)
Method: as §1

ULK2 = target: T35, ULK2 (Homo sapiens, UniProt Q8IYT8)
T35 construct: purchased DiscoverX (KINOMEscan)
Method: as §1

COc1cc(/C=C2\N=C(N)NC2=O)ccc1O [Polyandrocarpamine A]
Score [1]: 92
Score [2]: 98
Score [3]: 100
Score (ACVRL1): 100
Score (AMPK-alpha2): 87
Score (ANKK1): 100
Score (BMPR2): 95
Score (CDK7): 100
Score (CDKL1): 100
Score (CLK2): 45
Score (CLK3): 69
Score (DDR1): 100
Score (DYRK1A): 3
Score (EPHA5): 100
Score (EPHB4): 100
Score (EPHB6): 97
Score (FAK): 94
Score (FLT3(D835H)): 94
Score (FLT3(D835Y)): 100
Score (GRK1): 100
Score (GSK3B): 100
Score (INSRR): 81
Score (IRAK3): 98
Score [4]: 84
Score (KIT(L576P)): 99
Score (KIT(V559D,T670I)): 85
Score (MELK): 100
Score (MET(M1250T)): 97
Score (MKNK1): 63
Score (MST2): 100
Score (NDR2): 91
Score (NEK4): 100
Score (SIK2): 94
Score (SRPK3): 100
Score (TRKA): 95
Score (ULK2): 100
